The values below come from patent US20240109917A1 (ACTELION PHARMACEUTICALS LTD, priority 2020, published 2024).

This experiment has as its target VEGFR2, unphosphorylated (Homo sapiens (Human), UniProt P35968). The experiment in a line: VEGFR ADP GLO Assay. Format: biochemical. A general note: In ADP-Glo the light output rises with the ADP produced.

The term IC50 denotes the midpoint of a concentration-inhibition curve. The low end stands for higher potency, the high end for lower potency.

Sequence of VEGFR2, unphosphorylated (P35968 20-1356): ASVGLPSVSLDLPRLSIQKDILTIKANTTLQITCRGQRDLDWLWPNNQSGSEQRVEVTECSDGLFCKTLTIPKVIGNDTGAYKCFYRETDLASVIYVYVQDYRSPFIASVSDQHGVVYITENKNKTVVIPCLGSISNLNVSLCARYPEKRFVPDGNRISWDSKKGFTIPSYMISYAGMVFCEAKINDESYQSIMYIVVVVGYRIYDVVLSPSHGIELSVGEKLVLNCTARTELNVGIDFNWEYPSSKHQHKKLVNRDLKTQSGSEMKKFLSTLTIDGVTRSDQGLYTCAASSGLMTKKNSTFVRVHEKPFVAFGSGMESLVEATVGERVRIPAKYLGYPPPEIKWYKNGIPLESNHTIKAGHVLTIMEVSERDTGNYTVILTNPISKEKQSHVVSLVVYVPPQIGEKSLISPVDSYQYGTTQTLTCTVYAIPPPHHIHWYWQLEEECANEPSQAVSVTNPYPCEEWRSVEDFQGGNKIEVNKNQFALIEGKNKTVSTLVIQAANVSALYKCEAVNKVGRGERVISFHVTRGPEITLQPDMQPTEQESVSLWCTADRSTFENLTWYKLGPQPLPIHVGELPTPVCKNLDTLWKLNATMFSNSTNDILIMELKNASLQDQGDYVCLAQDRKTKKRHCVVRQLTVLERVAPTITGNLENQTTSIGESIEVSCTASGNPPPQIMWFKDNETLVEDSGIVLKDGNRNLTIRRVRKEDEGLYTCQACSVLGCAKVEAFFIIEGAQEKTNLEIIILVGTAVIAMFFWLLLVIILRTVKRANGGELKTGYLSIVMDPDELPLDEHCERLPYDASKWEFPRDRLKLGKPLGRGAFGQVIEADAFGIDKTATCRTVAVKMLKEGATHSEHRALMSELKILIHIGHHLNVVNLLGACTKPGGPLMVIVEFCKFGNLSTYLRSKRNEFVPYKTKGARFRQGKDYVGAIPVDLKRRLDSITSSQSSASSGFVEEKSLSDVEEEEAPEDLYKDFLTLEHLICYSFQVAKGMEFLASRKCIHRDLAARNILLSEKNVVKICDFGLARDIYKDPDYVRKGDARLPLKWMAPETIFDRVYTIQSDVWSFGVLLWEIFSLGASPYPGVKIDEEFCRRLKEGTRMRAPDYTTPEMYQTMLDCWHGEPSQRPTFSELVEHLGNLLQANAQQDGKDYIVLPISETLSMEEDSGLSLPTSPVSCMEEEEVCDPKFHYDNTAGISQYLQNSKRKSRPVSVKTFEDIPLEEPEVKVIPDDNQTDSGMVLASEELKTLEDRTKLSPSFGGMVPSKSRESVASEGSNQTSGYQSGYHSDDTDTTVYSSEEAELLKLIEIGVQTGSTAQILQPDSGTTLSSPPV

In turn, `Cc1ncc(C(=O)NCCN2CCOCC23CC3)cc1NC(=O)c1cnn2cc(-c3cnn(C)c3)sc12` [Example 110, N-(5-((2-(7-oxa-4-azaspiro[2.5]octan-4-yl)ethyl)carbamoyl)-2-methylpyridin-3-yl)-2-(1-methyl-1H-pyrazol-4-yl)pyrazolo[5,1-b]thiazole-7-carboxamide] registered a half-maximal inhibitory concentration (IC50) of 0.664 µM.

In turn, `Cc1ncc(C(=O)NCCN2Cc3ncsc3C2)cc1NC(=O)c1cnn2cc(-c3cnn(C)c3)sc12` [Example 111, N-(5-((2-(4H-pyrrolo[3,4-d]thiazol-5 (6H)-yl)ethyl)carbamoyl)-2-methylpyridin-3-yl)-2-(1-methyl-1H-pyrazol-4-yl)pyrazolo[5,1-b]thiazole-7-carboxamide] came in with a 50% inhibitory concentration (IC50) of more than 7.5 µM.

The compound `Cc1ncc(C(=O)NCCN2CC3COCC3C2)cc1NC(=O)c1cnn2cc(-c3cnn(C)c3)sc12` (stereo not shown) [Example 112, 2-(1-methyl-1H-pyrazol-4-yl)-N-(2-methyl-5-((2-(tetrahydro-1H-furo[3,4-c]pyrrol-5 (3H)-yl)ethyl)carbamoyl)pyridin-3-yl)pyrazolo[5,1-b]thiazole-7-carboxamide] came in with a half-maximal inhibitory concentration (IC50) of more than 7.5 µM.

For the compound `Cc1ncc(C(=O)NCCN2CCC3(CCC3)C2)cc1NC(=O)c1cnn2cc(-c3cnn(C)c3)sc12` [Example 113, N-(5-((2-(6-azaspiro[3.4]octan-6-yl)ethyl)carbamoyl)-2-methylpyridin-3-yl)-2-(1-methyl-1H-pyrazol-4-yl)pyrazolo[5,1-b]thiazole-7-carboxamide], the IC50 was more than 7.5 µM.

Take `Cc1ncc(C(=O)NCCN2CCCC23COC3)cc1NC(=O)c1cnn2cc(-c3cnn(C)c3)sc12` [Example 114, N-(5-((2-(2-oxa-5-azaspiro[3.4]octan-5-yl)ethyl)carbamoyl)-2-methylpyridin-3-yl)-2-(1-methyl-1H-pyrazol-4-yl)pyrazolo[5,1-b]thiazole-7-carboxamide]: the IC50 is more than 7.5 µM.

On to `COCCN(CCNC(=O)c1cnc(C)c(NC(=O)c2cnn3cc(-c4cnn(C)c4)sc23)c1)C1CCC1` [Example 115, N-(5-((2-(cyclobutyl(2-methoxyethyl)amino)ethyl)carbamoyl)-2-methylpyridin-3-yl)-2-(1-methyl-1H-pyrazol-4-yl)pyrazolo[5,1-b]thiazole-7-carboxamide], for which the half-inhibitory concentration (IC50) was more than 7.5 µM.

For `Cc1ncc(C(=O)NCCN2CCC3(CCOC3)C2)cc1NC(=O)c1cnn2cc(-c3cnn(C)c3)sc12` (stereo not shown) [Example 116, N-(5-((2-(2-oxa-7-azaspiro[4.4]nonan-7-yl)ethyl)carbamoyl)-2-methylpyridin-3-yl)-2-(1-methyl-1H-pyrazol-4-yl)pyrazolo[5,1-b]thiazole-7-carboxamide], the IC50 was more than 7.5 µM.

The compound `Cc1ncc(C(=O)NCCN2CCOCC23CCC3)cc1NC(=O)c1cnn2cc(-c3cnn(C)c3)sc12` [Example 117, N-(5-((2-(8-oxa-5-azaspiro[3.5]nonan-5-yl)ethyl)carbamoyl)-2-methylpyridin-3-yl)-2-(1-methyl-1H-pyrazol-4-yl)pyrazolo[5,1-b]thiazole-7-carboxamide] displayed an IC50 of more than 7.5 µM.

`Cc1ncc(C(=O)NCCN2CCC3(CC3)C2)cc1NC(=O)c1cnn2cc(-c3cnn(C)c3)sc12` [Example 118, N-(5-((2-(5-azaspiro[2.4]heptan-5-yl)ethyl)carbamoyl)-2-methylpyridin-3-yl)-2-(1-methyl-1H-pyrazol-4-yl)pyrazolo[5,1-b]thiazole-7-carboxamide] came in with an IC50 of more than 7.5 µM.

`Cc1ncc(C(=O)NCCN2CCC(F)(F)CC2)cc1NC(=O)c1cnn2cc(-c3cnn(C)c3)sc12` [Example 119, N-(5-((2-(4,4-difluoropiperidin-1-yl)ethyl)carbamoyl)-2-methylpyridin-3-yl)-2-(1-methyl-1H-pyrazol-4-yl)pyrazolo[5,1-b]thiazole-7-carboxamide] had an IC50 of more than 7.5 µM.

`Cc1ncc(C(=O)NCCN2CCC(F)(F)C2)cc1NC(=O)c1cnn2cc(-c3cnn(C)c3)sc12` [Example 120, N-(5-((2-(3,3-difluoropyrrolidin-1-yl)ethyl)carbamoyl)-2-methylpyridin-3-yl)-2-(1-methyl-1H-pyrazol-4-yl)pyrazolo[5,1-b]thiazole-7-carboxamide] came in with a concentration for half-maximal inhibition (IC50) of more than 7.5 µM.

The compound `Cc1ncc(C(=O)NCCN2CCCOCC2)cc1NC(=O)c1cnn2cc(-c3cnn(C)c3)sc12` [Example 121, N-(5-((2-(1,4-oxazepan-4-yl)ethyl)carbamoyl)-2-methylpyridin-3-yl)-2-(1-methyl-1H-pyrazol-4-yl)pyrazolo[5,1-b]thiazole-7-carboxamide] yielded an IC50 of more than 7.5 µM.

`Cc1ncc(C(=O)NCCN2C3CCC2COC3)cc1NC(=O)c1cnn2cc(-c3cnn(C)c3)sc12` [Example 122, N-(5-((2-(3-oxa-8-azabicyclo[3.2.1]octan-8-yl)ethyl)carbamoyl)-2-methylpyridin-3-yl)-2-(1-methyl-1H-pyrazol-4-yl)pyrazolo[5,1-b]thiazole-7-carboxamide] returned an IC50 of more than 7.5 µM.

The compound `Cc1ncc(C(=O)NCCN2CCCC(F)(F)C2)cc1NC(=O)c1cnn2cc(-c3cnn(C)c3)sc12` [Example 123, N-(5-((2-(3,3-difluoropiperidin-1-yl)ethyl)carbamoyl)-2-methylpyridin-3-yl)-2-(1-methyl-1H-pyrazol-4-yl)pyrazolo[5,1-b]thiazole-7-carboxamide] had an IC50 of more than 7.5 µM.

Consider `Cc1ncc(C(=O)NCCN2CC3(CCC3)C2)cc1NC(=O)c1cnn2cc(-c3cnn(C)c3)sc12` [Example 124, N-(5-((2-(2-azaspiro[3.3]heptan-2-yl)ethyl)carbamoyl)-2-methylpyridin-3-yl)-2-(1-methyl-1H-pyrazol-4-yl)pyrazolo[5,1-b]thiazole-7-carboxamide], for which the IC50 was more than 7.5 µM.

Consider `Cc1ncc(C(=O)NCCN2CC(F)(F)C2)cc1NC(=O)c1cnn2cc(-c3cnn(C)c3)sc12` [Example 125, N-(5-((2-(3,3-difluoroazetidin-1-yl)ethyl)carbamoyl)-2-methylpyridin-3-yl)-2-(1-methyl-1H-pyrazol-4-yl)pyrazolo[5,1-b]thiazole-7-carboxamide], for which the half-inhibitory concentration (IC50) was more than 7.5 µM.

For the compound `Cc1ncc(C(=O)NCCN2CC(C)(C)C2)cc1NC(=O)c1cnn2cc(-c3cnn(C)c3)sc12` [Example 126, N-(5-((2-(3,3-dimethylazetidin-1-yl)ethyl)carbamoyl)-2-methylpyridin-3-yl)-2-(1-methyl-1H-pyrazol-4-yl)pyrazolo[5,1-b]thiazole-7-carboxamide], the IC50 was more than 7.5 µM.

With `COCCN(CCNC(=O)c1cnc(C)c(NC(=O)c2cnn3cc(-c4cnn(C)c4)sc23)c1)C(C)C` [Example 127, N-(5-((2-(isopropyl(2-methoxyethyl)amino)ethyl)carbamoyl)-2-methylpyridin-3-yl)-2-(1-methyl-1H-pyrazol-4-yl)pyrazolo[5,1-b]thiazole-7-carboxamide], the IC50 was more than 7.5 µM.

`COCCN(CCNC(=O)c1cnc(C)c(NC(=O)c2cnn3cc(-c4cnn(C)c4)sc23)c1)CCOC` [Example 128, N-(5-((2-(bis(2-methoxyethyl)amino)ethyl)carbamoyl)-2-methylpyridin-3-yl)-2-(1-methyl-1H-pyrazol-4-yl)pyrazolo[5,1-b]thiazole-7-carboxamide] registered an IC50 of more than 7.5 µM.
